Assay results: US12617773B2, “Azetidin-3-ylmethanol derivatives as CCR6 receptor modulators” (Idorsia Pharmaceuticals Ltd, priority 2020, dated 2026)
pIC50: −log10 of the molar value.

target: T1, human CCR6 (Homo sapiens, UniProt P51684); assay: FLIPR assay (inhibition of CCL20-induced calcium signal); format: cell-based; conditions: HEK-293 cells expressing human CCR6; mean values where determined several times; read-out: FLIPR IC50
T1 construct: expressed in transfected cells; host or cells: HEK-293
T1 sequence (P51684 1-374): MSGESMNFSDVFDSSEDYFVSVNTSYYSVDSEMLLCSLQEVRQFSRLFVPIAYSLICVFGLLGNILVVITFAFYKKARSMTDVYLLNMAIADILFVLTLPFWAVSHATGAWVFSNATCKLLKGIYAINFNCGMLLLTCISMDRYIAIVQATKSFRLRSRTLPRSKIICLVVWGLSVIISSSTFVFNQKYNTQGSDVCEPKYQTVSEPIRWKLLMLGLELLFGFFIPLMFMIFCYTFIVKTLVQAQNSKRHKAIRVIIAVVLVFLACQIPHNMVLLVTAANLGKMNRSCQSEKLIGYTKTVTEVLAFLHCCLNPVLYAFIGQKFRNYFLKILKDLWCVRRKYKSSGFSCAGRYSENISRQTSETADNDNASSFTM
Procedure, shortened: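 Dye-loaded HEK-293 cells expressing human CCR6 were preincubated with compound for 30 min at room temperature in the dark, then challenged with 10 nM CCL20 (final). Fluorescence was tracked on FLIPR, and baseline-subtracted peak emission over base after agonist addition gave inhibition dose-response curves for IC50.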

SMILES | pIC50
CN1CC(C)([C@](O)(c2ccc(OC3CCC3)cc2)c2cncc(-c3noc(C(C)(C)O)n3)c2)C1 [Example 574] | 5.87
C=C(C)c1ccc([C@](O)(c2cncc(-c3noc(C(C)(C)O)n3)c2)C2(C)CN(C)C2)cc1 [Example 575] | 6.99
CC(=O)N1CCC(c2nc(-c3cncc([C@@](O)(c4ccc(CC(F)(F)F)cc4)C4(C)CN(C)C4)c3)no2)CC1 [Example 576] | 6.57
CCCc1ccc([C@](O)(c2cncc(-c3noc(C4CCN(C(C)=O)CC4)n3)c2)C2(C)CN(C)C2)cc1 [Example 577] | 7.18
CC(=O)N1CCC(c2nc(-c3cncc([C@@](O)(c4ccc(C(C)C)cc4)C4(C)CN(C(C)C)C4)c3)no2)CC1 [Example 578, 1-[4-(3-{5-[(R)-Hydroxy-(1-isopropyl-3-methyl-azetidin-3-yl)-(4-isopropyl-phenyl)-methyl]-pyridin-3-yl}-[1,2,4]oxadiazol-5-yl)-piperidin-1-yl]-ethanone] | 7.01
CC(=O)N1CCC(c2nc(-c3cncc([C@@](O)(c4ccc(C(C)C)cc4)C4(C)CN(CC(F)F)C4)c3)no2)CC1 [Example 579, 1-[4-(3-{5-[(R)-[1-(2,2-Difluoro-ethyl)-3-methyl-azetidin-3-yl]-hydroxy-(4-isopropyl-phenyl)-methyl]-pyridin-3-yl}-[1,2,4]oxadiazol-5-yl)-piperidin-1-yl]-ethanone] | 6.39
CC(=O)N1CCC(c2nc(-c3cncc([C@@](O)(c4ccc(C(C)C)cc4)C4(C)CN(CCO)C4)c3)no2)CC1 [Example 580, 1-[4-(3-{5-[(R)-Hydroxy-[1-(2-hydroxy-ethyl)-3-methyl-azetidin-3-yl]-(4-isopropyl-phenyl)-methyl]-pyridin-3-yl}[1,2,4]oxadiazol-5-yl)-piperidin-1-yl]-ethanone] | 6.53
CC(=O)N1CCC(c2nc(-c3cncc([C@@](O)(c4ccc(C(C)C)cc4)C4(C)CN(CC5CC5)C4)c3)no2)CC1 [Example 581] | 6.95
COCCN1CC(C)([C@](O)(c2ccc(C(C)C)cc2)c2cncc(-c3noc(C4CCN(C(C)=O)CC4)n3)c2)C1 [Example 582] | 6.31
CC(=O)N1CCC(c2nc(-c3cncc([C@@](O)(c4ccc(C(C)C)cc4)C4(C)CN(CCC(F)(F)F)C4)c3)no2)CC1 [Example 583] | 6.62
CCCN1CC(C)([C@](O)(c2ccc(C(C)C)cc2)c2cncc(-c3noc(C4CCN(C(C)=O)CC4)n3)c2)C1 [Example 584] | 6.89
CCN1CC(C)([C@](O)(c2ccc(C(C)C)cc2)c2cncc(-c3noc(C4CCN(C(C)=O)CC4)n3)c2)C1 [Example 585] | 6.94
CC(=O)N1CCC(C#Cc2cncc([C@@](O)(c3ccc(C(C)C)cc3)C3(C)CN(C)C3)c2)CC1 [Example 586] | 7.17
CC(C)c1ccc([C@](O)(c2cncc(C#CC(C)(O)C(F)(F)F)c2)C2(C)CN(C)C2)cc1 (stereo partly shown) [Example 587] | 7.83
CC(C)c1ccc([C@](O)(c2cncc(C#CC(C)(C)NC(=O)C3CC3)c2)C2(C)CN(C)C2)cc1 [Example 588] | 6.92
CC(C)C(=O)NC(C)(C)C#Cc1cncc([C@@](O)(c2ccc(C(C)C)cc2)C2(C)CN(C)C2)c1 [Example 589] | 6.81
COCC(=O)NC(C)(C)C#Cc1cncc([C@@](O)(c2ccc(C(C)C)cc2)C2(C)CN(C)C2)c1 [Example 590] | 6.63
CC(C)c1ccc([C@](O)(c2cncc(C#CC(C)(C)N3CCOC3=O)c2)C2(C)CN(C)C2)cc1 [Example 591] | 7.15
CC(C)c1ccc([C@](O)(c2cncc(C#CC(C)(C)N3CCCC3=O)c2)C2(C)CN(C)C2)cc1 [Example 592] | 7.35
CC(C)c1ccc([C@](O)(c2cncc(C#CC(C)(C)N3CCN(C)C3=O)c2)C2(C)CN(C)C2)cc1 [Example 593] | 7.29

SMILES | pIC50
CC(C)c1ccc([C@](O)(c2cncc(C#CC(C)(C)N3CCNC3=O)c2)C2(C)CN(C)C2)cc1 [Example 594] | 7.34
CC(C)c1ccc([C@](O)(c2cncc(C#CC3(N4CCOC4=O)CC3)c2)C2(C)CN(C)C2)cc1 [Example 595] | 7.03
CC(=O)N1CCC[C@]1(C)C#Cc1cncc([C@@](O)(c2ccc(C(C)C)cc2)C2(C)CN(C)C2)c1 [Example 596] | 6.93
CC(=O)N1CCC(O)(C#Cc2cncc([C@@](O)(c3ccc(C(C)C)cc3)C3(C)CN(C)C3)c2)CC1 [Example 597] | 6.40
CC(=O)N1CCC(C(C)(O)C#Cc2cncc([C@@](O)(c3ccc(C(C)C)cc3)C3(C)CN(C)C3)c2)CC1 (stereo partly shown) [Example 598] | 7.02
CC(=O)N1CCC(C(O)C#Cc2cncc([C@@](O)(c3ccc(C(C)C)cc3)C3(C)CN(C)C3)c2)CC1 (stereo partly shown) [Example 599] | 6.83
CC(=O)N1CCC(CC#Cc2cncc([C@@](O)(c3ccc(C(C)C)cc3)C3(C)CN(C)C3)c2)CC1 [Example 600] | 7.34
CC(=O)N1CCC(C)(C(O)C#Cc2cncc([C@@](O)(c3ccc(C(C)C)cc3)C3(C)CN(C)C3)c2)CC1 (stereo partly shown) [Example 601] | 7.12
CC(=O)N1CCC(C)(C#Cc2cncc([C@@](O)(c3ccc(C(C)C)cc3)C3(C)CN(C)C3)c2)CC1 [Example 602] | 7.40
CC(C)c1ccc([C@](O)(c2cncc(C#CC3CCN(S(C)(=O)=O)CC3)c2)C2(C)CN(C)C2)cc1 [Example 603] | 7.51
CNS(=O)(=O)N1CCC(C)(C#Cc2cncc([C@@](O)(c3ccc(C(C)C)cc3)C3(C)CN(C)C3)c2)CC1 [Example 604] | 7.72
CC(C)c1ccc([C@](O)(c2cncc(C#CC(C)(C)S(C)(=O)=O)c2)C2(C)CN(C)C2)cc1 [Example 605] | 7.10
CC(C)c1ccc([C@](O)(c2cncc(C#CC3(S(=O)(=O)N(C)C)CC3)c2)C2(C)CN(C)C2)cc1 [Example 606] | 7.65
CC(C)c1ccc([C@](O)(c2cncc(C#CC3(S(N)(=O)=O)CC3)c2)C2(C)CN(C)C2)cc1 [Example 607] | 6.98
CC(C)c1ccc([C@](O)(c2cncc(C#CC(C)(C)S(=O)(=O)C3CC3)c2)C2(C)CN(C)C2)cc1 [Example 608] | 7.36
CC(C)c1ccc([C@](O)(c2cncc(C#C[C@]3(O)CCN(C)C3=O)c2)C2(C)CN(C)C2)cc1 [Example 609] | 6.18
CC(C)c1ccc([C@](O)(c2cncc(C#C[C@@]3(O)CCN(C)C3=O)c2)C2(C)CN(C)C2)cc1 [Example 610] | 6.37
CC(C)c1ccc([C@](O)(c2cncc(C#CC3(O)CCOc4cccnc43)c2)C2(C)CN(C)C2)cc1 (stereo partly shown) [Example 611] | 7.13
CC(C)c1ccc([C@](O)(c2cncc(C#CC3(O)C(=O)N(C)c4ccccc43)c2)C2(C)CN(C)C2)cc1 (stereo partly shown) [Example 612] | 7.23
CC(C)c1ccc([C@](O)(c2cncc(C#CC(C)(O)c3n[nH]c4ccccc34)c2)C2(C)CN(C)C2)cc1 (stereo partly shown) [Example 613] | 7.95

SMILES | pIC50
CC(C)c1ccc([C@](O)(c2cncc(C#CC(C)(O)c3nn(C)c4ccccc34)c2)C2(C)CN(C)C2)cc1 (stereo partly shown) [Example 614] | 7.90
Cc1nccc(C(C)(O)C#Cc2cncc([C@@](O)(c3ccc(C(C)C)cc3)C3(C)CN(C)C3)c2)n1 (stereo partly shown) [Example 616] | 6.99
Cc1cnc(C(C)(O)C#Cc2cncc([C@@](O)(c3ccc(C(C)C)cc3)C3(C)CN(C)C3)c2)cn1 (stereo partly shown) [Example 617] | 7.27
Cc1ncc(C(C)(O)C#Cc2cncc([C@@](O)(c3ccc(C(C)C)cc3)C3(C)CN(C)C3)c2)s1 (stereo partly shown) [Example 618] | 7.63
CC(C)c1ccc([C@](O)(c2cncc(C#CC(C)(O)c3cc(C4CC4)ncn3)c2)C2(C)CN(C)C2)cc1 (stereo partly shown) [Example 619] | 7.16
CC(=O)NC(C)(C)C#Cc1cncc([C@@](O)(c2ccc(C(C)C)cc2)C2(C)CN(C)C2)c1 [Example 621] | 6.63
CC(C)c1ccc([C@](O)(c2cncc(C#CC(C)(O)c3cc(C(F)(F)F)ncn3)c2)C2(C)CN(C)C2)cc1 (stereo partly shown) [Example 632] | 7.85
CC(C)c1ccc([C@](O)(c2cncc(C#CC(C)(O)c3cc(C(F)F)ncn3)c2)C2(C)CN(C)C2)cc1 (stereo partly shown) [Example 633] | 7.37
CC(C)c1ccc([C@](O)(c2cncc(C#CC3(c4ccccn4)CC3)c2)C2(C)CN(C)C2)cc1 [Example 634] | 7.39
Cc1cc(C2(C#Cc3cncc([C@@](O)(c4ccc(C(C)C)cc4)C4(C)CN(C)C4)c3)CC2)ncn1 [Example 635] | 7.63
CC(=O)N1CCC(CCc2cncc([C@@](O)(c3ccc(C(C)C)cc3)C3(C)CN(C)C3)c2)CC1 [Example 636] | 6.97
CC(C)c1ccc([C@](O)(c2cncc(CCC(C)(O)C(F)(F)F)c2)C2(C)CN(C)C2)cc1 (stereo partly shown) [Example 637] | 7.33
CC(C)c1ccc([C@](O)(c2cncc(CCC(C)(C)N3CCOC3=O)c2)C2(C)CN(C)C2)cc1 [Example 638] | 6.29
CC(C)c1ccc([C@](O)(c2cncc(CCC(C)(C)N3CCCC3=O)c2)C2(C)CN(C)C2)cc1 [Example 639] | 7.02
CC(C)c1ccc([C@](O)(c2cncc(CCC(C)(C)N3CCN(C)C3=O)c2)C2(C)CN(C)C2)cc1 [Example 640] | 6.77
CC(C)c1ccc([C@](O)(c2cncc(CCC(C)(C)N3CCNC3=O)c2)C2(C)CN(C)C2)cc1 [Example 641] | 7.17
CC(=O)N1CCC[C@]1(C)CCc1cncc([C@@](O)(c2ccc(C(C)C)cc2)C2(C)CN(C)C2)c1 [Example 642] | 6.56
CC(C)c1ccc([C@](O)(c2cncc(CCC(C)(O)c3n[nH]c4ccccc34)c2)C2(C)CN(C)C2)cc1 (stereo partly shown) [Example 643] | 7.77
